Counter-ions that a name gives are not always drawn.
target: T1, SMO (Mus musculus, UniProt P56726); test: Smoothened (SMO)/Sonic Hedgehog (SHh) Transient Transcriptional Activation Assay (Gli-luciferase reporter in C3H10T1/2 cells); type: cell-based, murine; conditions: 2 uM test compound, SHh 250 ng/ml, 20 hrs
T1 construct: endogenous in cells; host or cells: C3H10T1/2 (ATCC #CCL-226)
Method in brief: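 C3H10T1/2 cells transiently transfected with a 10× murine Gli-responsive firefly luciferase reporter plus pEGFP, serum-starved 20 h in 0.5% calf serum, then treated with compounds (2 uM–2 nM final) and 250 ng/ml recombinant human SHh for 20 h at 37 °C. Read-out: Dual-Glo luminescence.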

T1 sequence (P56726 33-793): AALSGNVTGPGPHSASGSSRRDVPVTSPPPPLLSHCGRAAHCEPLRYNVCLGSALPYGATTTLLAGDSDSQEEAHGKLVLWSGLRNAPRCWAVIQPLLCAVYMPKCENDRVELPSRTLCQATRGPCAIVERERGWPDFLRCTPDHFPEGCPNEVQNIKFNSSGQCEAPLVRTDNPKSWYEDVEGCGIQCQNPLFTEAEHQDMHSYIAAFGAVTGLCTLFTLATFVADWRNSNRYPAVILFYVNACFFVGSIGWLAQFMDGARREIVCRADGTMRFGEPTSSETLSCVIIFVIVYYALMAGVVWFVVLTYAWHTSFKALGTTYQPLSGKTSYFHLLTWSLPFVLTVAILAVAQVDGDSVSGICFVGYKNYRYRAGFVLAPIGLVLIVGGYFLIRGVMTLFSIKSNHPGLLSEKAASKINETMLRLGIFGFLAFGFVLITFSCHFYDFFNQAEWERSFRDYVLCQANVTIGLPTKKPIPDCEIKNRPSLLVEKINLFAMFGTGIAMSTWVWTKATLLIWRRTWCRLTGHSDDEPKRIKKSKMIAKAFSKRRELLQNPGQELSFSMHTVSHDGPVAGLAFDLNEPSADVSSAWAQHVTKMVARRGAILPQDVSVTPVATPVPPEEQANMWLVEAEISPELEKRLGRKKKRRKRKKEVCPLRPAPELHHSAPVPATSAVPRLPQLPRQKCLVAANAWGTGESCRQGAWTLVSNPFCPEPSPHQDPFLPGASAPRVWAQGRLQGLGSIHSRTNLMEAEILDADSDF

Molecule | SMO % inhibition at 2 uM [%]
N-(3-(1-Methyl-6-(morpholinomethyl)-1H-benzo[d]imidazol-2-yl]cyclohexyl)-2,3-dihydrobenzo[b][1,4]dioxine-6-carboxamide and N-(3-(1-Methyl-5-(morpholinomethyl)-1H-benzo[d]imidazol-2-yl]cyclohexyl)-2,3-dihydrobenzo[b][1,4]dioxine-6-carboxamide [Example 37] | 88
N-(3-(5-Bromo-1-methyl-1H-benzo[d]imidazol-2-yl)cyclohexyl)-3,5-dimethoxybenzamide and N-(3-(6-bromo-1-methyl-1H-benzo[d]imidazol-2-yl)cyclohexyl)-3,5-dimethoxybenzamide [Example 18] | 107
N-(3-(5-Cyano-1-methyl-1H-benzo[d]imidazol-2-yl)cyclohexyl]-2,3-dihydrobenzo[b][1,4]dioxine-6-carboxamide and N-(3-(6-Cyano-1-methyl-1H-benzo[d]imidazol-2-yl)cyclohexyl]-2,3-dihydrobenzo[b][1,4]dioxine-6-carboxamide [Example 20] | 103
N-(3-(6-(2-Cyanopropan-2-yl)-1-methyl-1H-benzo[d]imidazol-2-yl)cyclohexyl)-2,3-dihydrobenzo[b)[1,4]dioxine-6-carboxamide and N-(3-(5-(2-cyanopropan-2-yl)-1-methyl-1H-benzo[d]imidazol-2-yl)cyclohexyl)-2,3-dihydrobenzo[b][1,4]dioxine-6-carboxamide [Example 36] | 93
N-(3-(6-((Dimethylamino)methyl]-1-methyl-1H-benzo[d]imidazol-2-yl)cyclohexyl)-2,3-dihydrobenzo[b][1,4]dioxine-6-carboxamide and N-(3-(5-((Dimethylamino)methyl]-1-methyl-1H-benzo[d]imidazol-2-yl)cyclohexyl)-2,3-dihydrobenzo[b][1,4]dioxine-6-carboxamide [Example 34] | 96
N-(3-(6-(Hydroxymethyl)-1-methyl-1H-benzo[d]imidazol-2-yl)cyclohexyl)-2,3-dihydrobenzo[b][1,4]dioxine-6-carboxamide and N-(3-(5-(Hydroxymethyl)-1-methyl-1H-benzo[d]imidazol-2-yl)cyclohexyl)-2,3-dihydrobenzo[b][1,4]dioxine-6-carboxamide [Example 30] | 104
N-(3-(6-(Methoxymethyl)-1-methyl-1H-benzo[d]imidazol-2-yl]cyclohexyl)-2,3-dihydrobenzo[b][1,4]dioxine-6-carboxamide and N-(3-(6-(Methoxymethyl)-1-methyl-1H-benzo[d]imidazol-2-yl]cyclohexyl)-2,3-dihydrobenzo[b][1,4]dioxine-6-carboxamide [Example 33] | 102
N-(3-(6-Isopropyl-1-methyl-1H-benzo[d]imidazol-2-yl)cyclohexyl)-2,3-dihydrobenzo[b][1,4]dioxine-6-carboxamide and N-(3-(5-isopropyl-1-methyl-1H-benzo[d]imidazol-2-yl)cyclohexyl)-2,3-dihydrobenzo[b][1,4]dioxine-6-carboxamide [Example 32] | 81
N-((1R,3R)-3-(5-Methoxy-1H-benzo[d]imidazol-2-yl)cyclohexyl)-2,3-dihydrobenzo[b][1,4]dioxine-6-carboxamide and N-((1S,3S)-3-(5-methoxy-1H-benzo[d]imidazol-2-yl)cyclohexyl)-2,3-dihydrobenzo[b][1,4]dioxine-6-carboxamide [Example 49] | 92
N-((1R,3S)-3-(1H-benzo[d]imidazol-2-yl)cyclohexyl]-2,3-dihydrobenzo[b][1,4]dioxine-6-carboxamide and N-((1S,3R)-3-(1H-benzo[d]imidazol-2-yl)cyclohexyl)-2,3-dihydrobenzo[b][1,4]dioxine-6-carboxamide [Example 2] | 84

More lines, now with the values ahead:

SMO % inhibition at 2 uM [%] | Molecule
98 | N-(3-(1,5-Dimethyl-1H-benzo[d]imidazol-2-yl)cyclohexyl]-3,5-dimethoxybenzamide and N-(3-(1,6-dimethyl-1H-benzo[d]imidazol-2-yl)cyclohexyl]-3,5-dimethoxybenzamide [Example 22]
104 | N-(3-(5-(Aminomethyl)-1-methyl-1H-benzo[d]imidazol-2-yl)cyclohexyl)-3,5-dimethoxybenzamide and N-(3-(6-(aminomethyl)-1-methyl-1H-benzo[d]imidazol-2-yl)cyclohexyl)-3,5-dimethoxybenzamide [Example 23]
97 | N-(3-(6-(2-Hydroxypropan-2-yl)-1-methyl-1H-benzo[d]imidazol-2-yl)cyclohexyl)-2,3-dihydrobenzo[b][1,4]dioxine-6-carboxamide and N-(3-(5-(2-Hydroxypropan-2-yl)-1-methyl-1H-benzo[d]imidazol-2-yl)cyclohexyl)-2,3-dihydrobenzo[b][1,4]dioxine-6-carboxamide [Example 31]
103 | N-(3-(6-((2-Methoxyethylamino)methyl)-1-methyl-1H-benzo[d]imidazol-2-yl)cyclohexyl)-2,3-dihydrobenzo[b][1,4]dioxine-6-carboxamide and N-(3-(5-((2-methoxyethylamino)methyl)-1-methyl-1H-benzo[d]imidazol-2-yl)cyclohexyl)-2,3-dihydrobenzo[b][1,4]dioxine-6-carboxamide [Example 38]
106 | N-(3-(6-(Cyanomethyl)-1-methyl-1H-benzo[d]imidazol-2-yl)cyclohexyl)-2,3-dihydrobenzo[b][1,4]dioxine-6-carboxamide and N-(3-(5-(Cyanomethyl)-1-methyl-1H-benzo[d]imidazol-2-yl)cyclohexyl)-2,3-dihydrobenzo[b][1,4]dioxine-6-carboxamide [Example 35]
80 | N-((1R,3R)-3-(1H-benzo[d]imidazol-2-yl)cyclohexyl)-3-oxo-3,4-dihydro-2H-benzo[b][1,4]oxazine-6-carboxamide and N-((1S,3S)-3-(1H-benzo[d]imidazol-2-yl)cyclohexyl)-3-oxo-3,4-dihydro-2H-benzo[b][1,4]oxazine-6-carboxamide [Example 48]

same assay, conditions: C3H 10T1/2, 2 uM test compound, SHh 250 ng/ml, 20 hrs, read-out: SMO % inhibition at 2 uM

inhibition at 2 µM [%] | Molecule
103 | O=C(N[C@@H]1CCC[C@H](c2nc3ccccc3[nH]2)C1)c1ccc(Cl)nc1 [N-((1R,3S)-3-(1H-Benzo[d]imidazol-2-yl)cyclohexyl)-6-chloronicotinamide]

same assay, conditions: C3H 10T1/2, 2 μM test compound, SHh 250 ng/ml, 20 hrs, read-out: SMO CELL % INHIBITION @ 2 μM

inhibition at 2 µM [%] | Molecule
102 | O=C(N[C@@H]1CCC[C@H](c2nc3ccccc3[nH]2)C1)c1ccc2c(c1)CCNC2 [Example 309, N-[(1R,3S)-3-(1H-benzimidazol-2-yl)cyclohexyl]-1,2,3,4-tetrahydroiso-quinoline-6-carboxamide HCl]
91.6 | Cn1c([C@H]2CCC[C@@H](NC(=O)c3ccc4c(c3)CNCC4)C2)nc2ccccc21 [Example 310, N-[(1R,3S)-3-(1-methyl-1H-benzimidazol-2-yl)cyclohexyl]-1,2,3,4-tetrahydroiso-quinoline-7-carboxamide HCl]
100 | Cn1c([C@H]2CCC[C@@H](NC(=O)c3ccc4c(c3)CCNC4)C2)nc2ccccc21 [Example 311, N-[(1R,3S)-3-(1-methyl-1H-benzimidazol-2-yl)cyclohexyl]-1,2,3,4-tetrahydroiso-quinoline-6-carboxamide HCl]

From patent US20100029615A1, “BENZIMIDAZOLE DERIVATIVES” (priority 2006, published 2010)
